Reference: patent publication US9326506B2, “Preparation method, agricultural composition and applications of natural brassinolide analogs” (CHENGDU NEWSUN CROPSCIENCE CO., LTD, priority 2012, dated 2016)

Test system: rice
Experiment: Low temperature assay on rice seedlings
Format: in vivo
Method: According to a low temperature assay, we measured parameters including plant height, number of leaf, area of leaf, number of tiller, weight of root at low temperature to completely determine effects of the natural brassinolide analogues on the resistance to low temperature of a plant.
The natural brassinolide analogues, BR1, BR2, BR3, BR4, BR5 and BR6, used herein, were those prepared by the method of Example 1. Respectively the analogues were dissolved into 95% (V/V) ethanol solution, and then diluted with pure water to 1 mg/L, 0.1 mg/L, 0.01 mg/L, 0.001 mg/L and 0.0001 mg/L. In addition, pure water was used as a control.
After rice seeds were disinfected by using 5% sodium hypochlorite solution treatment, they were rinsed with distilled water until their pH>7, placed into a petri dish in a dark incubator, and cultured by using water at 30° C.±2° C. for 9 days. Then respectively the nine-day-old etiolated seedlings of rice were immersed in the above solutions containing different concentrations of the natural brassinolide analogues or pure water, and cultured at the temperature of 1° C., 2° C., 3° C., 4° C. and 5° C. for 24 hr. The parameters including plant height, area of leaf and weight of root after 3, 6, 9 and 12 days and number of leaf and number of tiller after 12 days were measured.

CC[C@@H](C(C)C)[C@@H](O)[C@H](O)[C@@H](C)[C@H]1CCC2C3COC(=O)C4C[C@H](O)[C@H](O)C[C@]4(C)C3CC[C@@]21C (stereo partly shown) [BR2] gave an Area of leaf (0.001 mg/l, 2 °C, 6 days) of 11.6 cm^2, a Height (0.001 mg/l, 2 °C, 6 days) of 7.1 cm and a Weight of root (0.001 mg/l, 2 °C, 6 days) of 3.0 g. It also gave an Area of leaf (0.001 mg/l, 2 °C, 9 days) of 12.1 cm^2, a Height (0.001 mg/l, 2 °C, 9 days) of 7.1 cm and a Weight of root (0.001 mg/l, 2 °C, 9 days) of 3.2 g. The Area of leaf (0.001 mg/l, 2 °C, 12 days) was 13.1 cm^2, the Height (0.001 mg/l, 2 °C, 12 days) was 7.3 cm and the Number of leaf (0.001 mg/l, 2 °C, 12 days) was 3. The Number of tiller (0.001 mg/l, 2 °C, 12 days) was 3, the Weight of root (0.001 mg/l, 2 °C, 12 days) was 3.9 g and the Area of leaf (0.001 mg/l, 3 °C, 3 days) was 10 cm^2. For the same compound, the Height (0.001 mg/l, 3 °C, 3 days) was 7 cm, the Weight of root (0.001 mg/l, 3 °C, 3 days) was 2.5 g and the Area of leaf (0.001 mg/l, 3 °C, 6 days) was 12 cm^2. For the same compound, the Height (0.001 mg/l, 3 °C, 6 days) was 7.1 cm, the Weight of root (0.001 mg/l, 3 °C, 6 days) was 2.6 g and the Area of leaf (0.001 mg/l, 3 °C, 9 days) was 12.4 cm^2. For the same compound, the Height (0.001 mg/l, 3 °C, 9 days) was 7.3 cm, the Weight of root (0.001 mg/l, 3 °C, 9 days) was 2.9 g and the Area of leaf (0.001 mg/l, 3 °C, 12 days) was 13 cm^2. It also gave a Height (0.001 mg/l, 3 °C, 12 days) of 7.4 cm, a Number of leaf (0.001 mg/l, 3 °C, 12 days) of 3 and a Number of tiller (0.001 mg/l, 3 °C, 12 days) of 2. The Weight of root (0.001 mg/l, 3 °C, 12 days) was 2.9 g, the Area of leaf (0.001 mg/l, 4 °C, 3 days) was 10 cm^2 and the Height (0.001 mg/l, 4 °C, 3 days) was 7.1 cm. The Weight of root (0.001 mg/l, 4 °C, 3 days) was 2.5 g, the Area of leaf (0.001 mg/l, 4 °C, 6 days) was 12.1 cm^2 and the Height (0.001 mg/l, 4 °C, 6 days) was 7.3 cm. It also gave a Weight of root (0.001 mg/l, 4 °C, 6 days) of 2.6 g, an Area of leaf (0.001 mg/l, 4 °C, 9 days) of 13 cm^2 and a Height (0.001 mg/l, 4 °C, 9 days) of 7.5 cm. For the same compound, the Weight of root (0.001 mg/l, 4 °C, 9 days) was 2.9 g, the Area of leaf (0.001 mg/l, 4 °C, 12 days) was 13.5 cm^2 and the Height (0.001 mg/l, 4 °C, 12 days) was 7.5 cm. It also gave a Number of leaf (0.001 mg/l, 4 °C, 12 days) of 3, a Number of tiller (0.001 mg/l, 4 °C, 12 days) of 2 and a Weight of root (0.001 mg/l, 4 °C, 12 days) of 2.9 g. The Area of leaf (0.001 mg/l, 5 °C, 3 days) was 10.2 cm^2, the Height (0.001 mg/l, 5 °C, 3 days) was 7.2 cm and the Weight of root (0.001 mg/l, 5 °C, 3 days) was 2.8 g. It also gave an Area of leaf (0.001 mg/l, 5 °C, 6 days) of 14 cm^2, a Height (0.001 mg/l, 5 °C, 6 days) of 7.5 cm and a Weight of root (0.001 mg/l, 5 °C, 6 days) of 2.9 g. It also gave an Area of leaf (0.001 mg/l, 5 °C, 9 days) of 15.4 cm^2, a Height (0.001 mg/l, 5 °C, 9 days) of 7.8 cm and a Weight of root (0.001 mg/l, 5 °C, 9 days) of 3.0 g. It also gave an Area of leaf (0.001 mg/l, 5 °C, 12 days) of 16 cm^2, a Height (0.001 mg/l, 5 °C, 12 days) of 8 cm and a Number of leaf (0.001 mg/l, 5 °C, 12 days) of 3. The Number of tiller (0.001 mg/l, 5 °C, 12 days) was 3, the Weight of root (0.001 mg/l, 5 °C, 12 days) was 3.7 g and the Area of leaf (0.01 mg/l, 1 °C, 3 days) was 10.1 cm^2. For the same compound, the Height (0.01 mg/l, 1 °C, 3 days) was 7.0 cm, the Weight of root (0.01 mg/l, 1 °C, 3 days) was 2.8 g and the Area of leaf (0.01 mg/l, 1 °C, 6 days) was 11.6 cm^2. For the same compound, the Height (0.01 mg/l, 1 °C, 6 days) was 7.2 cm, the Weight of root (0.01 mg/l, 1 °C, 6 days) was 3.0 g and the Area of leaf (0.01 mg/l, 1 °C, 9 days) was 12.4 cm^2. It also gave a Height (0.01 mg/l, 1 °C, 9 days) of 7.4 cm, a Weight of root (0.01 mg/l, 1 °C, 9 days) of 3.4 g and an Area of leaf (0.01 mg/l, 1 °C, 12 days) of 13.6 cm^2. For the same compound, the Height (0.01 mg/l, 1 °C, 12 days) was 7.5 cm, the Number of leaf (0.01 mg/l, 1 °C, 12 days) was 3 and the Number of tiller (0.01 mg/l, 1 °C, 12 days) was 3. The Weight of root (0.01 mg/l, 1 °C, 12 days) was 3.9 g, the Area of leaf (0.01 mg/l, 2 °C, 3 days) was 10.1 cm^2 and the Height (0.01 mg/l, 2 °C, 3 days) was 7.1 cm. The Weight of root (0.01 mg/l, 2 °C, 3 days) was 2.8 g, the Area of leaf (0.01 mg/l, 2 °C, 6 days) was 11.1 cm^2 and the Height (0.01 mg/l, 2 °C, 6 days) was 7.2 cm. The Weight of root (0.01 mg/l, 2 °C, 6 days) was 3.1 g, the Area of leaf (0.01 mg/l, 2 °C, 9 days) was 12.5 cm^2 and the Height (0.01 mg/l, 2 °C, 9 days) was 7.5 cm. The Weight of root (0.01 mg/l, 2 °C, 9 days) was 3.1 g, the Area of leaf (0.01 mg/l, 2 °C, 12 days) was 13.4 cm^2 and the Height (0.01 mg/l, 2 °C, 12 days) was 7.5 cm. The Number of leaf (0.01 mg/l, 2 °C, 12 days) was 3, the Number of tiller (0.01 mg/l, 2 °C, 12 days) was 3 and the Weight of root (0.01 mg/l, 2 °C, 12 days) was 3.2 g. For the same compound, the Area of leaf (0.01 mg/l, 3 °C, 3 days) was 10.2 cm^2, the Height (0.01 mg/l, 3 °C, 3 days) was 7.1 cm and the Weight of root (0.01 mg/l, 3 °C, 3 days) was 2.5 g. For the same compound, the Area of leaf (0.01 mg/l, 3 °C, 6 days) was 12 cm^2, the Height (0.01 mg/l, 3 °C, 6 days) was 7.2 cm and the Weight of root (0.01 mg/l, 3 °C, 6 days) was 2.6 g. It also gave an Area of leaf (0.01 mg/l, 3 °C, 9 days) of 12.6 cm^2.
